{"source": "patent US5306620A", "about": "“Antibodies that bind to a ligand-induced binding site on integrin and induce integrin activation” (The Scripps Research Institute, priority 1990, dated 1994)", "key": {"αIIb β3 and αv β3": {"system": "αIIb β3 and αv β3", "experiment": "Peptide ligand recognition by recombinant β3 integrins", "type": "binding, human"}, "GPIIb-IIIa on platelets": {"target": "T1, GPIIb-IIIa on platelets (Homo sapiens, UniProt P05106+P08514)", "T1 construct": "endogenous in cells; host or cells: platelets", "T1 sequence (P08514 32-887 limits assumed)": "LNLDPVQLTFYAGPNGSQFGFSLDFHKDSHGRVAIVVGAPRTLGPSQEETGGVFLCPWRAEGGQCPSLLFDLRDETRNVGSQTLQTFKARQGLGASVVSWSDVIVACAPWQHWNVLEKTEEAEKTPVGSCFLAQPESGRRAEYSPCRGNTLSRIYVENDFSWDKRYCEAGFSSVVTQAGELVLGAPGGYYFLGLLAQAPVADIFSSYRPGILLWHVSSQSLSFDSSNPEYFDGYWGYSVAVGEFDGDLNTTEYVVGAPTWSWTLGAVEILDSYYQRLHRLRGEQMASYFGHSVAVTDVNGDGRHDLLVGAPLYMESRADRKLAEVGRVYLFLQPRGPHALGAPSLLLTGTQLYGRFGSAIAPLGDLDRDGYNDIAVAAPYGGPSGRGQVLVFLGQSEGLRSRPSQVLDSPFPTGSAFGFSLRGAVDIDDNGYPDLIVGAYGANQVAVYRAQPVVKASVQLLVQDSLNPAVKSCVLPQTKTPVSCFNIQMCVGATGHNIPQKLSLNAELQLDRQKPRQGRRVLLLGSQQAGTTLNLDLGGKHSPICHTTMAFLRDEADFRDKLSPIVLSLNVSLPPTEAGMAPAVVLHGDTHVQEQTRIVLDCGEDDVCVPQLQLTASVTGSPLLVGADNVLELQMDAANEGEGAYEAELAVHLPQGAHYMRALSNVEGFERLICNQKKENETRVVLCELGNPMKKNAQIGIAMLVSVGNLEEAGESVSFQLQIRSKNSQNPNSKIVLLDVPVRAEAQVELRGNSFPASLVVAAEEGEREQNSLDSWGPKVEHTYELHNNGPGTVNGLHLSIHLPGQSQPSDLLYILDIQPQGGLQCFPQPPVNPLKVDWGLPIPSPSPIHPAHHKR", "T1 sequence (P08514 891-1039 partner limits assumed)": "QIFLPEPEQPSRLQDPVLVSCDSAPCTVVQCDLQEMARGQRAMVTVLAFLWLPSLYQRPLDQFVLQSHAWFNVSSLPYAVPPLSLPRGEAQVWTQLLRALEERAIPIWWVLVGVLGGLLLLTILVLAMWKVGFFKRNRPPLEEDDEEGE", "T1 sequence (P05106 27-788)": "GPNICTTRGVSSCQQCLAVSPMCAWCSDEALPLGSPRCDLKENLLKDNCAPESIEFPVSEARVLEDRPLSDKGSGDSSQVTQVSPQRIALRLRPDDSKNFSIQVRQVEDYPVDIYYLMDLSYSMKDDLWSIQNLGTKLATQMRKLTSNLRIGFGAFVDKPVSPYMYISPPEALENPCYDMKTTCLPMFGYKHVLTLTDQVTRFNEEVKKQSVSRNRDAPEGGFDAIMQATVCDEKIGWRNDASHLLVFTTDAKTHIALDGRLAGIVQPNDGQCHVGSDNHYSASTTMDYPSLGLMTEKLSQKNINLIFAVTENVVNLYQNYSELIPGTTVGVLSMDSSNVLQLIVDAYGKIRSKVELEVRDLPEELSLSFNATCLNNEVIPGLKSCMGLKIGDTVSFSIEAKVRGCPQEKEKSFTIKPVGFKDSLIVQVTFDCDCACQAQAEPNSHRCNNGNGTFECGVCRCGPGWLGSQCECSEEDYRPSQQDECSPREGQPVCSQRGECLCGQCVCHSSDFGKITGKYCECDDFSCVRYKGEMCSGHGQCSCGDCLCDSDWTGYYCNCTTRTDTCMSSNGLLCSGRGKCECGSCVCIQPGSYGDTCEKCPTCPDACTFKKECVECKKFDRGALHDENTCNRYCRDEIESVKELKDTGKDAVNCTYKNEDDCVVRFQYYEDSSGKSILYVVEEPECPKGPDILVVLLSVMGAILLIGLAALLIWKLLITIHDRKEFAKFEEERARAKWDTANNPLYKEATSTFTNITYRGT", "experiment": "125I-anti-LIBS1 binding to washed platelets with peptide ligands", "settings": "peptide 0.8 mM; stimulated and unstimulated platelets", "description": "FIG. 2 illustrates anti-LIBS1 binding to platelets expressing a cryptic antigenic determinant as described in Example 5. Varied concentrations of ^125 I-anti-LIBS1 were bound at 37 C. for 30 minutes to gel-filtered platelets in the presence of no peptide (inverted triangle), 0.8 mM GRGESP (squares), 0.8 mM GRGDSP (triangles) or GRGDSP and 10 uM ADP (circles). Bound radioactivity was separated from free by spinning the platelets through a layer of sucrose.\nWashed platelets were isolated as described in Example 1A, and were resuspended in 2 ml of calcium-free Tyrode's buffer (0.13 M NaCl, 0.0026 M KCl 0.002M MgCl2. 6H2 O, 5 mM Hepes, 0.012 M NaHCO3, pH 7.2) which was first treated by admixture with Chelex 100 (200-400 mesh sodium form, Bio-Rad Laboratories, Richmond, Calif.), maintained to complex any divalent cations present in the Tyrode's buffer and filtered to remove the complexed divalent cations from the buffer. The platelet suspension was then applied to a Sepharose CL2B column (40 ml total bed volume, Pharmacia, Inc., Piscataway, N.J.) equilibrated with the same Tyrode's buffer. […] The label containing immunoreaction products were then separated from non-bound ^125 I-labeled antibody by centrifugation of the platelet aliquot through a sucrose cushion as described in Example 4, and the platelet-associated radioactivity was determined as before."}, "[1]": {"target": "T2, solubilized αIIb β3 from platelets (Homo sapiens, UniProt P05106+P08514)", "T2 construct": "αIIb β3 was solubilized from platelets; endogenous in cells; host or cells: human platelets, octylglucoside lysate", "T2 sequence (P08514 32-887 limits assumed)": "as the sequence (P08514 32-887 limits assumed) above", "T2 sequence (P08514 891-1039 partner limits assumed)": "as the sequence (P08514 891-1039 partner limits assumed) above", "T2 sequence (P05106 27-788)": "as the sequence (P05106 27-788) above", "experiment": "Solution phase assay: 125I-Fg binding to solubilized αIIb β3", "type": "biochemical", "description": "To determine if activating antibodies could activate αIIb β3 extracted away f rom the membrane milieu, the activating capacity to stimulate Fg binding in a solution phase was assayed. In this assay, αIIb β3 was solubilized from platelets, incubated in the presence or absence of activating monoclonal antibodies, and then bound to microtiter plates coated with a non-activating monoclonal anti β3 antibody.\nThe platelet pellet was resuspended and solubilized in ice cold 10 mM Hepes containing 150 mM NaCl, 50 mM octyl-B-D-glucoypyranoside (Calbiochem, La Jolla, Calif.) 1 mm PMSF, 50 ng/ml PGE, 1 mM CaCl2, 1 mM MgCl2, 50 uM leupeptin and 1 mg/ml N-ethylmaleimide (Sigma, St. Louis, Mo.) and centrifuged at 100,000 g for 30 minutes. […] The microtiter wells were incubated at 4 C. overnight, washed twice with a modified Tyrodes-Hepes buffer (2.5 mM Hepes, 150 mM NaCl, 2.5 mM KCl, 1 mM MgCl2, 12 mM NaHCO3, 5.5 mM D-glucose and 1 mg/ml BSA, pH 7.4) containing 50 MM octyl-B-D-glucopyranoside and 0.1 uM activating monoclonal antibody and then twice in Tyrodes-Hepes buffer only to form αIIb β3 -bound microtiter wells. […] Bound radioactivity was counted after 2 washes with Tyrodes-Hepes buffer."}, "αIIb β3 on A5 cells [2]": {"target": "T3, αIIb β3 on A5 cells (Homo sapiens, UniProt P05106+P08514)", "T3 construct": "expressed in transfected cells", "T3 sequence (P08514 32-887 limits assumed)": "as the sequence (P08514 32-887 limits assumed) above", "T3 sequence (P08514 891-1039 partner limits assumed)": "as the sequence (P08514 891-1039 partner limits assumed) above", "T3 sequence (P05106 27-788)": "as the sequence (P05106 27-788) above", "experiment": "Soluble 125I-fibrinogen binding to A5 cells", "type": "cell-based", "description": "FIG. 4 illustrates the equilibrium binding of soluble fibrinogen (Fg) to Ab-62 stimulated (activated) A5 cells when measured as in Example 10. A5 cells at a concentration of 10^6 per ml were admixed with 6 uM of Sepharose-purified AB-62 and maintained at 22 C. for 30 minutes to activate the integrin. Iodinated Fg was then admixed in varying concentrations from 0.01 to 1 nM. After a 60 minute maintenance period, the bound ligand was separated from free ligand by centrifugation through 0.3 ml of 20% sucrose. The amount of radiolabelled ligand associated with the cell pellet was determined by gamma detection. Saturable binding was measured in three different experiments and plotted versus the input Fg concentration to obtain an averaged profile. A Scatchard replot of the binding data was made and is shown in the insert.\nAn independent measure of integrin activation was made by detecting the ability of a cell containing the integrin to bind soluble fibrinogen (Fg) that had been labelled with ^125 I. Fg was isolated and labelled with ^125 I by standard methods as described by Marguerie et al., J. Biol. Chem., 255:154-161 (1980) to form ^125 I-Fg. Thereafter, the binding of ^125 I-Fg to transfected cells was assayed as described previously for platelets [Marguerie et al., J. Biol. Chem., 255:154-161 (1980)]. Binding was initiated by the addition of cells to radiolabelled Fg and incubation at 37 degrees for 30 minutes. Bound ligand was separated from free ligand by centrifugation through 0.3 ml of 20% sucrose and the amount of radiolabelled ligand associated with the cell pellet determined by gamma detection.\nBackground binding in this assay detected about 30,000 molecules of Fg bound per integrin bearing cell, whereas maximum Ab-62 stimulated A5 cells bound about 95,000 molecules of Fg per cell.\nEquilibrium binding of soluble Fg to Ab-62 stimulated (activated) A5 cells was carried out to better characterize Fg binding. […] A5 cells (10^6 per ml) were incubated with 6 uM Sepharose-purified Ab-62 for 30 minutes at 22 C. to activate the integrin. Thereafter ^125 I-Fg was admixed in varying concentrations from 0.01 to 1 nM. After 60 minutes, bound Fg was measured as described above after centrifugation of the cells through sucrose.\nSaturable binding was measured in three different experiments and plotted versus the input Fg concentration to obtain average data which is shown in FIG. 4. A Scatchard replot of the binding data was also made and is shown in the inset to FIG. 4. The binding of the various concentrations of Fg to activated A5 cells at steady state was analyzed by use of the \"Ligand\" computer program. […] There was day to day variation in the quantity of αIIb β3 expressed as measured by the binding of the 2G12 antibody (150,000 to 440,000 sites/cell) as well as in the number of Fg receptors (138,000 to 360,000 sites/cell). The ratio of Fg receptors to αIIb β3 expressed per cell on a given day was 0.83±0.05, thus virtually all of the recombinant αIIb β3 was functional with respect to Fg binding."}, "αIIb β3 on A5 cells [3]": {"target": "T3, αIIb β3 on A5 cells", "experiment": "Binding of fibrinogen-coated fluorescent beads to A5 cells", "type": "cell-based", "settings": "2 mM peptide", "description": "Immobilized Fg was prepared by coating […] fluorescent latex beads (Fluoricon Fluorescent Particles, Baxter, McGraw Park, Ill.). These beads were prepared by incubating 1 mg of purified Fg with 650 ul of Fluoricon beads for 1 hour at room temperature. The beads were pelleted, resuspended in 1 ml of 30 mM Tris pH 7.4, 170 mM NaCl and 1% BSA, and stored at 4 degrees until ready for use. The binding of these particles to transfected cells was assessed by incubating 5×10^5 cells with 25 ul of beads in the presence or absence of polypeptide inhibitors for 30 minutes at room temperature. The solution was layered over a 6% BSA cushion, spun 5 minutes in a microfuge and the pelleted cells resuspended in 500 ul of Tyrodes and subjected to FACS analysis as described in Example 7."}}, "note": "Residues, ends and D or L forms follow the SMILES beside them.", "data": [{"smiles": "CC(C)C[C@H](N)C(=O)NCC(=O)NCC(=O)N[C@@H](C)C(=O)N[C@@H](CCCCN)C(=O)N[C@@H](CCC(N)=O)C(=O)N[C@@H](C)C(=O)NCC(=O)N[C@@H](CC(=O)O)C(=O)N[C@H](C(=O)O)C(C)C", "note": "[Mab L10, LGGAKQAGDV] (H-LGGAKQAGDV-OH)", "values": [{"measurement": "recognition of peptide by αIIb β3 versus αv β3", "setting": "αIIb β3 and αv β3", "value": "recognized better by αIIb β3 than by αv β3"}]}, {"smiles": "N=C(N)NCCC[C@H](NC(=O)CN)C(=O)NCC(=O)N[C@@H](CC(=O)O)C(=O)N[C@@H](CO)C(=O)N1CCC[C@H]1C(=O)O", "note": "[GRGDSP, Gly-Arg-Gly-Asp-Ser-Pro]", "values": [{"measurement": "induction of LIBS1 cryptic antigenic determinant on platelets by peptide ligand", "setting": "GPIIb-IIIa on platelets", "value": "will express a LIBS1 cryptic antigenic determinant"}, {"measurement": "inhibition of Fg binding to stimulated captured receptor", "setting": "[1]", "value": "inhibition"}, {"measurement": "inhibition of soluble 125I-Fg binding to activated A5 cells", "setting": "αIIb β3 on A5 cells [2]", "value": "inhibited"}, {"measurement": "adherence of A5 cells to Fg-coated microspheres", "setting": "αIIb β3 on A5 cells [3]", "value": "inhibited"}]}]}
